Results taken from ChEMBL document CHEMBL1131816, “Novel quinolizidine salicylamide influenza fusion inhibitors” (Bioorg Med Chem Lett, 1999).
In brackets after ≈: the same amount, converted by molar mass.

Columns and labels:
[1] = test system: Influenza A virus; experiment: Cytotoxicity against A/WSN/33 strain (an H1N1 subtype) influenza virus in the plaque reduction assay; type: functional
[2] = Inhibitory activity against A/WSN/33 strain (an H1N1 subtype) influenza virus was measured by cell protection assay in MDBK cells; type: functional, cell-based, Bos taurus
[3] = Inhibitory activity against A/WSN/33 strain (an H1N1 subtype) influenza virus was measured by cell protection assay in MDBK cells; Not active; type: functional, cell-based, Bos taurus
[4] = Inhibitory activity against A/WSN/33 strain (an H1N1 subtype) influenza virus was measured by cell protection assay in MDBK cells; Value ranges from 0.2-0.3 ug/mL; type: functional, cell-based, Bos taurus

| Compound | CC50 [1] | EC50 [2] | EC50 [3] | EC50 [4] |
| --- | --- | --- | --- | --- |
| C[C@@H]1CCC[C@@H]2C[C@@H](NC(=O)c3ccccc3N)CCN21 | > 100 µg/mL | 5 µg/mL (≈ 17.4 µM) |  |  |
| C[C@@H]1CCC[C@@H]2C[C@@H](NC(=O)c3cc(C(C)(C)C)ccc3O)CCN21 | 50 µg/mL (≈ 145 µM) |  | Not Active |  |
| C[C@@H]1CCC[C@@H]2C[C@@H](NC(=O)c3ccccc3O)CCN21 | > 100 µg/mL | 1.6 µg/mL (≈ 5.55 µM) |  |  |
| C[C@@H]1CCC[C@@H]2C[C@@H](NC(=O)c3ccc(N)c(Cl)c3)CCN21 |  |  | Not Active |  |
| C[C@@H]1CCC[C@@H]2C[C@@H](NC(=O)c3cc(Br)ccc3O)CCN21 | > 100 µg/mL | 0.8 µg/mL (≈ 2.18 µM) |  |  |
| C[C@@H]1CCC[C@@H]2C[C@@H](NC(=O)c3c(O)ccc4ccccc34)CCN21 | > 100 µg/mL |  | Not Active |  |
| Cc1ccc(C(=O)N[C@H]2CCN3[C@H](CCC[C@H]3C)C2)c(O)c1 | > 100 µg/mL | 4 µg/mL (≈ 13.2 µM) |  |  |
| COc1ccc(O)c(C(=O)N[C@H]2CCN3[C@H](CCC[C@H]3C)C2)c1 | 100 µg/mL (≈ 314 µM) | 0.6 µg/mL (≈ 1.88 µM) |  |  |
| C[C@@H]1CCC[C@@H]2C[C@@H](NC(=O)c3cc(I)ccc3O)CCN21 | 100 µg/mL (≈ 241 µM) | 1 µg/mL (≈ 2.41 µM) |  |  |
| C[C@@H]1CCC[C@@H]2C[C@@H](NC(=O)c3cc4c(cc3O)C(C)(C)CCC4(C)C)CCN21 | 8 µg/mL (≈ 20.1 µM) |  | Not Active |  |
| C[C@@H]1CCC[C@@H]2C[C@@H](NC(=O)c3cc(Cl)ccc3O)CCN21 | > 100 µg/mL | 0.8 µg/mL (≈ 2.48 µM) |  |  |
| C[C@@H]1CCC[C@@H]2C[C@@H](NC(=O)c3cc(N=[N+]=[N-])ccc3O)CCN21 | > 100 µg/mL | 0.5 µg/mL (≈ 1.52 µM) |  |  |
| C[C@@H]1CCC[C@@H]2C[C@@H](NC(=O)c3cc(F)ccc3O)CCN21 | > 100 µg/mL | 0.4 µg/mL (≈ 1.31 µM) |  |  |
| C[C@@H]1CCC[C@@H]2C[C@@H](NC(=O)c3cc4ccccc4cc3O)CCN21 | > 100 µg/mL |  | Not Active |  |
| C[C@@H]1CCC[C@@H]2C[C@@H](NC(=O)c3cccc(O)c3O)CCN21 | 10 µg/mL (≈ 32.9 µM) |  | Not Active |  |
| C[C@@H]1CCC[C@@H]2C[C@@H](NC(=O)c3cc(Cl)cc(Cl)c3O)CCN21 | > 100 µg/mL | 10 µg/mL (≈ 28 µM) |  |  |
| C[C@@H]1CCC[C@@H]2C[C@@H](NC(=O)c3cc(C(=O)c4ccccc4)ccc3O)CCN21 | > 100 µg/mL |  | Not Active |  |
| C[C@@H]1CCC[C@@H]2C[C@@H](NC(=O)c3cc(C(F)(F)F)ccc3O)CCN21 | > 100 µg/mL |  | Not Active |  |
| C[C@@H]1CCC[C@@H]2C[C@@H](NC(=O)c3cc(Cl)c(N)cc3O)CCN21 | > 100 µg/mL | 1 µg/mL (≈ 2.96 µM) |  |  |
| COc1cc(N)c(Cl)cc1C(=O)N[C@H]1CCN2[C@H](CCC[C@H]2C)C1 | > 100 µg/mL |  | Not Active |  |
| C=Cc1ccc(O)c(C(=O)N[C@H]2CCN3[C@H](CCC[C@H]3C)C2)c1 | > 100 µg/mL | 2 µg/mL (≈ 6.36 µM) |  |  |
| Cc1cccc(C(=O)N[C@H]2CCN3[C@H](CCC[C@H]3C)C2)c1O | > 100 µg/mL | 8 µg/mL (≈ 26.5 µM) |  |  |
| C[C@@H]1CCC[C@@H]2C[C@@H](NC(=O)c3c(O)cccc3F)CCN21 | > 100 µg/mL | 10 µg/mL (≈ 32.6 µM) |  |  |
| C[C@@H]1CCC[C@@H]2C[C@@H](NC(=O)c3cc(-c4ccccc4)ccc3O)CCN21 | 30 µg/mL (≈ 82.3 µM) |  | Not Active |  |
| CC(=O)Nc1ccccc1C(=O)N[C@H]1CCN2[C@H](CCC[C@H]2C)C1 | > 100 µg/mL |  | Not Active |  |
| C[C@@H]1CCC[C@@H]2C[C@@H](NC(=O)c3cc(Cl)c(N=[N+]=[N-])cc3O)CCN21 |  |  | Not Active |  |
| Cc1ccc(O)c(C(=O)N[C@H]2CCN3[C@H](CCC[C@H]3C)C2)c1 | 100 µg/mL (≈ 331 µM) |  |  | 0.2 µg/mL (≈ 0.661 µM) |
| C[C@@H]1CCC[C@@H]2C[C@@H](NC(=O)c3ccc(N)cc3O)CCN21 | > 100 µg/mL |  | Not Active |  |
| C[C@@H]1CCC[C@@H]2C[C@@H](NC(=O)c3cc(O)ccc3O)CCN21 | 50 µg/mL (≈ 164 µM) |  | Not Active |  |
